In PubChem BioAssay AID179 (DTP/NCI, 2004):
Values joined by “and” are separate entries in the source; they are usually repeats but may differ in a detail not shown here. Identical values can stand only once. Active and inactive are the calls of the source.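 Rule for the calls: active = compounds giving half or more protection of infected cells from virus-caused growth loss, again on retest; inactive = the rest.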

Tested on: CEM cells HIV-1 protection, formazan growth assay
Experiment: NCI AIDS Antiviral Assay
Conditions: for IC50: measured here: growth of uninfected CEM cells
How it was run: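 Protection of CEM cells against HIV-1 measured as cell growth via soluble formazan read-out, with five concentrations tested on both infected and uninfected cells; failure to protect may reflect toxicity.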

| Structure (SMILES) | EC50 [µM] | IC50 | outcome |
| --- | --- | --- | --- |
| CC(C)CCCC(C)[C@H]1CC[C@H]2[C@@H]3CC[C@H]4C[C@@H](CCC=C(c5cc(Cl)c(O)c(C(=O)O)c5)c5cc(Cl)c(O)c(C(=O)O)c5)CC[C@]4(C)[C@H]3CC[C@]12C (stereo not given in full) (tested in a mixture with another compound) | > 100 | 40.7 µM | – |
| CCOC(=O)N1N=C(c2ccccc2)OC2(N3CCOCC3)CCC(C(C)(C)C)CC12 (stereo not given) | 30.2 | 31.6 µM | – |
| Cc1ccccc1C(C#N)C(=O)C(=O)Nc1nc([N+](=O)[O-])cs1 (stereo not given) | > 7.94 | > 7.94 µM | – |
| Cc1ccc2c(c1S)C(=O)c1ccccc1C2=O | > 117 | 29.5 µM | – |
| Nc1ccn(CC(=O)NCCCO)c(=O)n1 | > 200 | > 200 µM | – |
| CSc1cc(Cl)c(C)cc1S(=O)(=O)n1cc[nH]c1=O | > 200 | > 200 µM | – |
| COc1ccc(-c2coc3cc(OC)c(OC)c(OC)c3c2=O)cc1 | > 200 | > 200 µM | – |
| Cc1onc(-c2c(F)cccc2Cl)c1C(=O)Nc1cc2cc([N+](=O)[O-])ccc2oc1=O | > 50.1 | > 50.1 µM | – |
| Cc1cccc2c1C(=O)/C(=C/c1ccccc1C(=O)O)C2 | > 200 | 123 µM | – |
| CCOC(=O)[C@H]1CSC[C@@H](C(=O)OC)N1 | > 562 | > 562 µM | – |
| CN1C(=O)N(C)C(O)C1O (stereo not given) | > 200 | > 200 µM | – |
| CCCCN(CCCC)C(=Nc1ccccc1)N(CCCC)CCCC | > 138 | 24 µM | – |
| N#Cc1nc(C#N)n(S(=O)(=O)c2ccccc2)c1NS(=O)(=O)c1ccccc1 | > 200 | > 200 µM | – |
| O=C(O)CCSC(=S)Nc1ccccc1 | – | – | inactive |
| COC1=C(C)C(=O)C2=C(C1=O)C1C3CC4=C(C(=O)C(OC)=C(C)C4=O)C(CNC(=O)C(C)=O)N3C(C#N)C(C2)N1C (stereo not given) | > 1.2 | 0.0245 µM | – |
| OCC1CC(F)C(n2cnc3c(NOCc4ccccc4)ncnc32)O1 (stereo not given) | > 100 | > 100 µM | – |
| O=NNc1ccc(-c2ccccc2)cn1 | > 200 | 43.7 µM | – |
| COc1ccc(CN2COc3c(cc(Cl)c4cccnc34)C2)cc1 | > 200 | 1.55 µM | – |
| C=Cc1cc[n+](CCCCCCCCCCCC)cc1 | > 174 | 102 µM | – |
| Cc1cc(=O)oc2cc(NCS(=O)(=O)O)ccc12 | > 617 | > 617 µM | – |
| O=C([CH-]C(=O)c1ccccc1)c1ccccc1.[CH2-]C.[CH2-]C.[Tl+3] | > 53.7 | > 53.7 µM | – |
| CCOC(=O)C1C/C(C)=C(/C)SCCCS1 (stereo not given) | > 200 | 45.7 µM | – |
| Cc1[nH]nc2c1NC(=O)OC2C (stereo not given) | > 1480 | 1200 µM | – |

| Structure (SMILES) | EC50 [µM] | IC50 | outcome |
| --- | --- | --- | --- |
| CN(C)Cc1cc(N=Nc2ccccc2)cc(CN(C)C)c1O | > 200 | 102 µM | – |
| C[C@H]1O[C@@H](c2c(O)ccc3ccccc23)C[C@@H](N(C)C)C1O (stereo not given in full) | > 200 | 97.7 µM | – |
| O=C(O)CCCCCCCCCCCF | > 200 | 186 µM | – |
| Cc1ccc(-n2nnc3c(NNc4ccccc4)n[nH]c(=O)c32)cc1 | > 200 | 25.7 µM | – |
| O=[N+]([O-])c1ccc(Cl)cc1N/N=C/c1ccnc2ccccc12 | – | – | inactive |
| CCCN1C(=O)c2cc(=O)n(Cc3ccccc3)c(O)c2C1C (stereo not given) | > 115 | > 115 µM | – |
| Cc1cn(C2OCC(CO)C2O)c(=O)[nH]c1=O (stereo not given) | > 200 | > 200 µM | – |
| COc1ccc(/C=C(\C(=C/c2ccc(OC)cc2)[N+](=O)[O-])[N+](=O)[O-])cc1 | > 200 | 4.57 µM | – |
| CC[n+]1c(-c2ccccc2)c2cc(N)ccc2c2ccc(N)cc21 | > 708 | 0.794 µM and 0.525 µM | – |
| COC(=O)C1=C(C)N(NC(=O)c2cccc(Cl)c2)C(C)(O)C12CCOC2=O (stereo not given) | > 631 | 275 µM | – |
| S=C1N=C(Cl)/C(=C\c2ccco2)N1 | > 200 | > 200 µM | – |
| OC/C=C/c1ccc(Cl)cc1 | – | – | inactive |
| CSC1=Nc2ccccc2N=C(c2ccc(Cl)cc2)C1 | > 12.6 | > 12.6 µM | – |
| S=C1NC2(CCCCC2)NC12CCCCC2 | > 200 | > 200 µM | – |
| Fc1ccc(Nc2nc(Cl)c3[nH]cnc3n2)cc1Cl | > 200 | > 200 µM | – |
| NC(=S)N/N=C/c1c(O)c2cc(Cl)ccc2[nH]c1=O | > 200 | 93.3 µM | – |
| NC1=NNC2(C(N)=N1)c1ccccc1-c1ccccc12 | > 200 | 51.3 µM | – |
| C=CCNC(=S)N/C=C(\c1ccccc1)S(=O)Cc1ccccc1 (stereo not given) | > 200 | > 200 µM | – |
| Oc1c(C(O)N2CCOCC2)cc(C(O)N2CCOCC2)c(O)c1O (stereo not given) (tested in a mixture with another compound) | > 200 | 1.91 µM | – |
| CCOC(=O)/C=C/CCC(C)(C)COC(C)=O | – | – | inactive |
| N#Cc1c([N+](=O)[O-])cc(C(F)(F)F)cc1[N+](=O)[O-] | – | – | inactive |
| Clc1ccc(-c2nnc(-c3nn(-c4ccccc4)c4nc5ccccc5nc34)o2)cc1 | > 1.29 | > 1.29 µM | – |
